According to US9556223B2, “Antimicrobial compounds” (priority 2008, dated 2017):
Values after ≈ are worked out from the molar mass of the structure shown.

Columns and labels:
[1] = system: Staphylococcus haemolyticus; experiment: Susceptibility testing under planktonic growth condition (MIC); conditions: E-test (rifampicin: broth microdilution)
[2] = system: S. haemolyticus TUH 51-07 biofilm; experiment: Biofilm imaging, LIVE/DEAD staining, confocal laser scanning microscopy; format: cell-based
Procedure: One ml aliquots of MHIIB-diluted overnight culture was used to grow S. haemolyticus TUH 51-07 biofilm on plastic coverslides (Thermanox, cellculture treated on one side, NUNC) in 24-well dishes (Falcon 3047, Becton Dickinson, N.J., USA) for 24 h. The coverslides were then washed carefully with PBS, moved to a new plate and treated for 24 h with tetracycline 50 mg/L and 500 mg/L, vancomycin 50 mg/L and 500 mg/L, or Compound […] and 500 mg/L. The coverslides were washed again with […] and stained with a LIVE/DEAD kit (Invitrogen Molecular Probes, Eugene, Oreg., USA) following the manufacturer's instructions. This stain contains SYTO 9 (green fluorescent) and propidium iodide (PI; red fluorescent), both binding to DNA. When used alone, the SYTO 9 generally stains all bacteria in a population; both those with intact and those with damaged membranes. In contrast, PI penetrates only bacteria with damaged membranes, causing a reduction in the SYTO 9 stain green fluorescence when both dyes are present. We examined treated and untreated biofilms with a Leica TCS SP5 (Leica Microsystems Cms Gmbh, Mannheim, Germany) confocal laser scanning microscope (CLSM). Images were obtained using a 63×1.2 NA HCX PL APO water immersion lens. For detection of SYTO9 (green channel), we used the 488 nm line of the argon laser and a detection bandwidth of 495-515 nm. […]

[3] = system: Staphylococcus epidermidis; experiment: Susceptibility testing under planktonic growth condition (MIC); conditions: E-test (rifampicin: broth microdilution)
Staphylococcus aureus = experiment: as above; conditions: E-test (rifampicin: broth microdilution)
S. pyogenes = format: cell-based
C. albicans = format: cell-based
[4] = system: Staphylococcus aureus, strain ATCC 25923; format: cell-based
Procedure: (§1) MIC determinations on Staphylococcus aureus, strain ATCC 25923, Methicillin resistant Staphylococcus aureus (MRSA) strain ATCC 33591 and Methicillin resistant Staphylococcus epidermidis (MRSE) strain ATCC 27626 were performed by Toslab AS using standard methods. Amsterdam, D. (1996) Susceptibility testing of antimicrobials in liquid media, in Antibiotics in Laboratory Medicine. 4th ed (Lorian, V., Ed.) pp 75-78, Williams and Wilkins Co; Baltimore.

E. coli = format: cell-based
P. aeruginosa = format: cell-based
[5] = system: Methicillin resistant Staphylococcus aureus (MRSA) strain ATCC 33591; format: cell-based
Procedure: as §1

[6] = strain SH TUH 51-07, blood culture
[7] = strain TUH 51-03, blood culture
[8] = strain SE RP62A ATCC 35984, blood culture
[9] = strain SE TUH 08-16, blood culture

Compound	MIC antibiotics [1, 6] [µg/mL]	MIC antibiotics [1, 7] [µg/mL]	LIVE/DEAD staining of biofilm cells (green live, red dead) ([2]; 24 h treatment at 500 mg/L)	MIC antibiotics [3, 8] [µg/mL]	MIC antibiotics [3, 9] [µg/mL]	MIC antibiotics (Staphylococcus aureus; strain SA PIA 9, joint fluid) [µg/mL]	MIC antibiotics (Staphylococcus aureus; strain SA PIA90, joint fluid) [µg/mL]	MIC S. pyogenes (S. pyogenes) [µg/mL]	MIC C. albicans (C. albicans) [µg/mL]	MIC S. aureus [4] [µg/mL]	MIC E. coli (E. coli) [µg/mL]	MIC P. aeruginosa (P. aeruginosa) [µg/mL]	LIVE/DEAD staining of biofilm cells (green live, red dead) ([2]; 24 h treatment at 50 mg/L)	MIC MRSA [5] [µg/mL]
CN(C)[C@@H]1C(=O)C(C(N)=O)=C(O)[C@@]2(O)C(=O)C3=C(O)c4c(O)cccc4[C@@](C)(O)[C@H]3C[C@@H]12 [TET, tetracycline]	0.5 (≈ 1.13 µM)	1 (≈ 2.25 µM)	a significant part of the cells are still green indicating live bacteria with intact cell membrane	0.5 (≈ 1.13 µM)	2 (≈ 4.5 µM)	0.5 (≈ 1.13 µM)	0.5 (≈ 1.13 µM)	–	–	–	–	–	–	–
Cc1onc(-c2ccccc2)c1C(=O)N[C@@H]1C(=O)N2[C@@H]1SC(C)(C)[C@@H]2C(=O)O [OXA, oxacillin]	>256	>256	–	8 (≈ 19.9 µM)	16 (≈ 39.9 µM)	1 (≈ 2.49 µM)	1 (≈ 2.49 µM)	–	–	–	–	–	–	–
CCCCCCCCCCCCCCCCNC(=O)[C@H](CCCNC(=N)N)NC(=O)[C@H](Cc1c(C(C)(C)C)[nH]c2c(C(C)(C)C)cc(C(C)(C)C)cc12)NC(=O)[C@@H](N)CCCNC(=N)N [Compound 5]	–	–	–	–	–	–	–	6 (≈ 6.61 µM)	>100	5 (≈ 5.5 µM)	>100	>100	–	–
gentamicin	64	64	–	8	256	1	0.5	–	–	–	–	–	–	–
CC(=O)NC[C@H]1CN(c2ccc(N3CCOCC3)c(F)c2)C(=O)O1 [LZD, linezolid]	0.5 (≈ 1.48 µM)	0.5 (≈ 1.48 µM)	–	1 (≈ 2.96 µM)	2 (≈ 5.93 µM)	2 (≈ 5.93 µM)	1 (≈ 2.96 µM)	–	–	–	–	–	–	–
CN[C@H](CC(C)C)C(=O)N[C@H]1C(=O)N[C@@H](CC(N)=O)C(=O)N[C@H]2C(=O)N[C@H]3C(=O)N[C@H](C(=O)N[C@H](C(=O)O)c4cc(O)cc(O)c4-c4cc3ccc4O)[C@H](O)c3ccc(c(Cl)c3)Oc3cc2cc(c3O[C@@H]2O[C@H](CO)[C@@H](O)[C@H](O)[C@H]2O[C@H]2C[C@](C)(N)[C@H](O)[C@H](C)O2)Oc2ccc(cc2Cl)[C@H]1O [VAN, vancomycin]	2 (≈ 1.38 µM)	4 (≈ 2.76 µM)	–	4 (≈ 2.76 µM)	2 (≈ 1.38 µM)	2 (≈ 1.38 µM)	2 (≈ 1.38 µM)	–	–	–	–	–	predominantly green cells (live organisms)	–
CC(C)(C)c1cc(C(C)(C)C)c2[nH]c(C(C)(C)C)c(C[C@H](NC(=O)[C@@H](N)CCCNC(=N)N)C(=O)N[C@@H](CCCNC(=N)N)C(=O)NC3CCCC3)c2c1 [Compound 8]	–	–	–	–	–	–	–	–	–	–	–	–	–	<15
CO[C@H]1/C=C/O[C@@]2(C)Oc3c(C)c(O)c4c(O)c(c(/C=N/N5CCN(C)CC5)c(O)c4c3C2=O)NC(=O)/C(C)=C\C=C\[C@H](C)[C@H](O)[C@@H](C)[C@@H](O)[C@@H](C)[C@H](OC(C)=O)[C@@H]1C [RIF, rifampicin]	0.016 (≈ 0.0194 µM)	<0.016	–	<0.016	0.016 (≈ 0.0194 µM)	<0.016	0.016 (≈ 0.0194 µM)	–	–	–	–	–	–	–
